Experimental data reported in publication PMC9329436, “Optimization of the 4-anilinoquin(az)oline scaffold as epidermal growth factor receptor (EGFR) inhibitors for chordoma utilizing a toxicology profiling assay platform” (Scientific Reports, 2022).
Where two headings read alike, the source gives them in different places.

Key:
Assay type in all cases: biochemical
[1] = biological target: T1, 320 wild-type protein kinases (Homo sapiens, UniProt O43318); details: singlicate
T1 sequence (O43318 1-606): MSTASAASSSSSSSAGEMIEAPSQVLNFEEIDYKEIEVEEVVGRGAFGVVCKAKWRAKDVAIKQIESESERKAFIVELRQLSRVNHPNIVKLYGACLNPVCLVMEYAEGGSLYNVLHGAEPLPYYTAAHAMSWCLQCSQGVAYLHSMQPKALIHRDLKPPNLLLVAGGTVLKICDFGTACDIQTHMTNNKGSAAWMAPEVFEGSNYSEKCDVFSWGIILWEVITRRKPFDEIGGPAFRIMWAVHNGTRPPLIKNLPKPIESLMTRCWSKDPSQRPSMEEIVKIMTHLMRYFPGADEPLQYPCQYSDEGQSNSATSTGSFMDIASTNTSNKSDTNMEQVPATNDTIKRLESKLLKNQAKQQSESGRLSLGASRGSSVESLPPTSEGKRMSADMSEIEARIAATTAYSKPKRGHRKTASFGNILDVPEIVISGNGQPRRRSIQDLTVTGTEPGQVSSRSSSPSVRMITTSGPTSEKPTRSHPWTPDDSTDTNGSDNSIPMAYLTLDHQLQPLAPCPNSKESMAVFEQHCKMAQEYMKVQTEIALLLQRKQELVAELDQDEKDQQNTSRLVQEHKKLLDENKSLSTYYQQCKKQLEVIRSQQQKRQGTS
Text: (§1) Table S4. Profiling of two compounds at two concentrations against 320 wild-type protein kinases; singlicate measurement; Residual activities (% of control).

[2] = biological target: 320 wild-type protein kinases (Homo sapiens, UniProt P09619); details: PDGFR-beta, singlicate
Sequence of 320 wild-type protein kinases (Homo sapiens, UniProt P09619) (P09619 33-1106): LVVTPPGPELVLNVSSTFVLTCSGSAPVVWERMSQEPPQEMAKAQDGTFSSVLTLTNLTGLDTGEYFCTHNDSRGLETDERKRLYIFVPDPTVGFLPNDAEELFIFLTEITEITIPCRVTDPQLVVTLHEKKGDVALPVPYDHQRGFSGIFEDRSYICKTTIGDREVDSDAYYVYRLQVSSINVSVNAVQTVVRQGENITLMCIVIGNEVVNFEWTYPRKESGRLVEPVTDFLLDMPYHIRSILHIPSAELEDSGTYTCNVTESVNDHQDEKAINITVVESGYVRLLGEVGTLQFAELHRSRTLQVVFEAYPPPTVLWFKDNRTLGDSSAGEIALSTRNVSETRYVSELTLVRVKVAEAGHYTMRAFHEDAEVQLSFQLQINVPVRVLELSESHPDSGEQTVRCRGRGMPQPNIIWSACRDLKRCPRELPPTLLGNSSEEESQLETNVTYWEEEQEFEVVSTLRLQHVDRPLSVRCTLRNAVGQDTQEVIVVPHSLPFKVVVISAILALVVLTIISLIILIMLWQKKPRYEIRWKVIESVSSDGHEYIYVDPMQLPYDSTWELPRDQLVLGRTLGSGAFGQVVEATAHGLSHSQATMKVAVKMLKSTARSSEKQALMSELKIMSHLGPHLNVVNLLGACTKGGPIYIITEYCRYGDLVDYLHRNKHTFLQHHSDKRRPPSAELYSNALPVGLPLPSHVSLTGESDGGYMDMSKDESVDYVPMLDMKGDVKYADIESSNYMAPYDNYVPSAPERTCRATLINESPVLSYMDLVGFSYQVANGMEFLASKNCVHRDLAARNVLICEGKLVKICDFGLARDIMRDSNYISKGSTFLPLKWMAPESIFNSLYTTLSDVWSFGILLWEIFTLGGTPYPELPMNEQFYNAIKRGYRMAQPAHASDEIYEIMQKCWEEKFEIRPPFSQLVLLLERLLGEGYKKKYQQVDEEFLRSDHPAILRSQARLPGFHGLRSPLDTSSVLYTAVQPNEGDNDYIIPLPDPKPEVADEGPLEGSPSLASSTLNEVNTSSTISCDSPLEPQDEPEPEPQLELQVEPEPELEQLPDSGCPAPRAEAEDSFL
Text: as §1

[3] = biological target: 320 wild-type protein kinases (Homo sapiens, UniProt P16591); details: FER, singlicate
Sequence of 320 wild-type protein kinases (Homo sapiens, UniProt P16591) (P16591 whole entry): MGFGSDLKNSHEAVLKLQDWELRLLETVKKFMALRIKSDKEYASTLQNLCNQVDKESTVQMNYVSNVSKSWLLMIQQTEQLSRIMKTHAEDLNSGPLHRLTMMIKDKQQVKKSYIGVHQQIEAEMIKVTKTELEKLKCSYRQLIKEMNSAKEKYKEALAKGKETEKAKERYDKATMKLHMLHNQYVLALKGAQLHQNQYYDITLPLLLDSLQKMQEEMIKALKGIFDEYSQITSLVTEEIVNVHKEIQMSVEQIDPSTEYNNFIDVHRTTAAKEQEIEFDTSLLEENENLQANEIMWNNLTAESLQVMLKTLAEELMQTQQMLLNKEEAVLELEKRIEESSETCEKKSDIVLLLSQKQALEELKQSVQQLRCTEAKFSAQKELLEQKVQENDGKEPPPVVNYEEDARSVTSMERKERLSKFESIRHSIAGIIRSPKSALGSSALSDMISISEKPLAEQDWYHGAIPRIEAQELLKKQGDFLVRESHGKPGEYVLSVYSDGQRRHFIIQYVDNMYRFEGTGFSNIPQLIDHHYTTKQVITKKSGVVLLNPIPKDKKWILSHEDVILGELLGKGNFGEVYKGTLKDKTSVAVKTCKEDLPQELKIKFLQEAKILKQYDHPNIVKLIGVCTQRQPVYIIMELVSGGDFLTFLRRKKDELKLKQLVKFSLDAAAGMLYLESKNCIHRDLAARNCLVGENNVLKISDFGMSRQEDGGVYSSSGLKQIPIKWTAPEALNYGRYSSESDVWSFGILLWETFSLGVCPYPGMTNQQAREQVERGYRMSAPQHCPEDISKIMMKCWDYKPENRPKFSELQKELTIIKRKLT
Text: as §1

[4] = biological target: 320 wild-type protein kinases (Homo sapiens, UniProt P22455); details: singlicate
Text: as §1

[5] = biological target: T2, 320 wild-type protein kinases (Homo sapiens, UniProt P36897); details: kinase TGFB-R1, singlicate
T2 sequence (P36897 34-503): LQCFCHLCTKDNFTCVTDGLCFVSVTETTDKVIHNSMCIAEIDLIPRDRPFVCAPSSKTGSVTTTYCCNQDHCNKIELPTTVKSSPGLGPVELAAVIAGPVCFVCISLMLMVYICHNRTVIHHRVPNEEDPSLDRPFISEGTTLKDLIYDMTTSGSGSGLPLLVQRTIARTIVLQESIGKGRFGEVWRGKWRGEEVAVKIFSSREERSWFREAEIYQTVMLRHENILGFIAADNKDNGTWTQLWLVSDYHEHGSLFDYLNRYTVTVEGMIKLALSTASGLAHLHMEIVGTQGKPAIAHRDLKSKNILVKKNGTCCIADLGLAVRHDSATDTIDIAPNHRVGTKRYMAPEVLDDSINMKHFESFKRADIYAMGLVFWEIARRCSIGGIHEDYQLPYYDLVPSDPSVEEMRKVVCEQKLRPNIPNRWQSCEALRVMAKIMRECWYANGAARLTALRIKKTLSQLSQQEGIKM
Text: as §1

[6] = biological target: 320 wild-type protein kinases (Homo sapiens, UniProt P45983); details: singlicate
Sequence of 320 wild-type protein kinases (Homo sapiens, UniProt P45983) (P45983 whole entry): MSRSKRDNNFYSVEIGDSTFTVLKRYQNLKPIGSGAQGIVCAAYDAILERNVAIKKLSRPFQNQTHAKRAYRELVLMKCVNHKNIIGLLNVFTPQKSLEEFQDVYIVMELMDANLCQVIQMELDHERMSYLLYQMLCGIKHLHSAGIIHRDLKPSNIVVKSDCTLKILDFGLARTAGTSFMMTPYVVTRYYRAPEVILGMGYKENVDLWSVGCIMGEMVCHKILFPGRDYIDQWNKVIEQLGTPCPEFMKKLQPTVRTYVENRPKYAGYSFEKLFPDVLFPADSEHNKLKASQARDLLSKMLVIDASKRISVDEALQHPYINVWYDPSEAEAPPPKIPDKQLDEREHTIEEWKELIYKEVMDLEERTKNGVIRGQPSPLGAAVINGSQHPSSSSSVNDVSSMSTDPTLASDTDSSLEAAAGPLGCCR
Text: as §1

[7] = biological target: 320 wild-type protein kinases (Homo sapiens, UniProt P50613); details: singlicate
Sequence of 320 wild-type protein kinases (Homo sapiens, UniProt P50613) (P50613 whole entry): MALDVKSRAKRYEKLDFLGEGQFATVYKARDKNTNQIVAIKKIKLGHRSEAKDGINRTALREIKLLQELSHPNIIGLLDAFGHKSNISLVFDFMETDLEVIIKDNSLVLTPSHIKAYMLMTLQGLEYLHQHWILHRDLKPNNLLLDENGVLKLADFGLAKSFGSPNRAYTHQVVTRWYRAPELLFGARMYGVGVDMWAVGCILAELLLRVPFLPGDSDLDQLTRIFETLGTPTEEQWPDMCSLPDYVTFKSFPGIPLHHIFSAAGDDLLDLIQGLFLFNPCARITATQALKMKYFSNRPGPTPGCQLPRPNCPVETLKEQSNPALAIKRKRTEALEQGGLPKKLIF
Text: as §1

[8] = biological target: T3, 320 wild-type protein kinases (Homo sapiens, UniProt Q06418); details: kinase TYRO3, singlicate
T3 sequence (Q06418 41-890): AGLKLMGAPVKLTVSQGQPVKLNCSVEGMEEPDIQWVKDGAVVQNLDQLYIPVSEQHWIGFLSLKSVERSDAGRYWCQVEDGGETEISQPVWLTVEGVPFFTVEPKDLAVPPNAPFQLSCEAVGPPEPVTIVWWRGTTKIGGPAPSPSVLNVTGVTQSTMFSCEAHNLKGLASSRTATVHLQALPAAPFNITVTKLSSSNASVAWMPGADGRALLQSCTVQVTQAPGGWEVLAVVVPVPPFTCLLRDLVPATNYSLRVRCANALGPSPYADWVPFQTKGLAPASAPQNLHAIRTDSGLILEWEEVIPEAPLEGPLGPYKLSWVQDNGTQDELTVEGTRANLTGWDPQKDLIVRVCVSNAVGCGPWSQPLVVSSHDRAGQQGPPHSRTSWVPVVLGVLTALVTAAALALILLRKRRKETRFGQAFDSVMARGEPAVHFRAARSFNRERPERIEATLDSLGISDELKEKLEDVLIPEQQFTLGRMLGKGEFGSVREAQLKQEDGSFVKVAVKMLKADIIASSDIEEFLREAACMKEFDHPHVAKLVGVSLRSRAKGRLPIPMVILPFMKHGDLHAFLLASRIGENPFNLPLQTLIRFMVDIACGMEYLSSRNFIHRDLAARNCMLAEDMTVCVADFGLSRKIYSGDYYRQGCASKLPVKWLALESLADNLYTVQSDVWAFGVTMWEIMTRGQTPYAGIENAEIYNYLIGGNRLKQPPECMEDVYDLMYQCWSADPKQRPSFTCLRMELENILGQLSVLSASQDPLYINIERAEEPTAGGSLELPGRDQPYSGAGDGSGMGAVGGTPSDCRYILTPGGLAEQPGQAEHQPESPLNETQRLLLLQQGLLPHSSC
Text: as §1

[9] = biological target: 320 wild-type protein kinases (Homo sapiens, UniProt Q16620); details: kinase TRK-B, singlicate
Sequence of 320 wild-type protein kinases (Homo sapiens, UniProt Q16620) (Q16620 32-822): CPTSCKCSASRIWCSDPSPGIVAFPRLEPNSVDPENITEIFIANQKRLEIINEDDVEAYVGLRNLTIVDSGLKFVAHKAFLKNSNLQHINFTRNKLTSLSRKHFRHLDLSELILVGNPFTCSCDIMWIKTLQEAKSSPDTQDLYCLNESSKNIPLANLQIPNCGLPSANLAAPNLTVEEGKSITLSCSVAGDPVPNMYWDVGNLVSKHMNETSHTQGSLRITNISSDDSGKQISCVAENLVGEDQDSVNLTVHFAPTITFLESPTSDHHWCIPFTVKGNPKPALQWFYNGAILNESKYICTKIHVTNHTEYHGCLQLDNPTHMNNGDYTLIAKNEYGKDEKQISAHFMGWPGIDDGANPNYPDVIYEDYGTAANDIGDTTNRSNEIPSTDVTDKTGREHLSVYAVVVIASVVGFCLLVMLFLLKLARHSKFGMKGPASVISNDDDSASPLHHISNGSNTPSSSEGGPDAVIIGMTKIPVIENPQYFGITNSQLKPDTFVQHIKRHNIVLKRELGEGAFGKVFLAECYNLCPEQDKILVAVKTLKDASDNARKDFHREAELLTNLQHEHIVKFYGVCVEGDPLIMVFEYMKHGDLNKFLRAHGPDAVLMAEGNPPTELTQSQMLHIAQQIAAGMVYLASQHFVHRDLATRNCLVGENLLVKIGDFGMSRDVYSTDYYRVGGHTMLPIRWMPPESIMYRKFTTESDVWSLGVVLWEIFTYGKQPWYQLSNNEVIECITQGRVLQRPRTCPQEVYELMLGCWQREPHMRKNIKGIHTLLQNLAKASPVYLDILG
Text: as §1

[10] = biological target: 320 wild-type protein kinases (Homo sapiens, UniProt Q86Y07); details: kinase VRK2, singlicate
Sequence of 320 wild-type protein kinases (Homo sapiens, UniProt Q86Y07) (Q86Y07 whole entry): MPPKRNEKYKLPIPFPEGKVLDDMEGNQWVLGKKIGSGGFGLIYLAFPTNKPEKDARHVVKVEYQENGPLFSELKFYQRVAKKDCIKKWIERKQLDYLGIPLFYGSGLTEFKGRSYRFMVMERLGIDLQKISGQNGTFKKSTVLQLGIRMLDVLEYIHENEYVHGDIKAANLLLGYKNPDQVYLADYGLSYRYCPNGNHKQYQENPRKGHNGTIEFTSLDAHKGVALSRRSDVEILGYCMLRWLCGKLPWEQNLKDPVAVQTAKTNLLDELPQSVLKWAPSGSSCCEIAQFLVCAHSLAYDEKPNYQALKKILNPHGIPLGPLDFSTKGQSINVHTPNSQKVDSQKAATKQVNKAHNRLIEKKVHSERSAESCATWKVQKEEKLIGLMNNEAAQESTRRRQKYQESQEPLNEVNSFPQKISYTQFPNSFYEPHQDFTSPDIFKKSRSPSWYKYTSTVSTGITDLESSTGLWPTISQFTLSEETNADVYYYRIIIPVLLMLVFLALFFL
Text: as §1

[11] = biological target: 320 wild-type protein kinases (Homo sapiens, UniProt Q9P0L2); details: singlicate
Sequence of 320 wild-type protein kinases (Homo sapiens, UniProt Q9P0L2) (Q9P0L2 whole entry): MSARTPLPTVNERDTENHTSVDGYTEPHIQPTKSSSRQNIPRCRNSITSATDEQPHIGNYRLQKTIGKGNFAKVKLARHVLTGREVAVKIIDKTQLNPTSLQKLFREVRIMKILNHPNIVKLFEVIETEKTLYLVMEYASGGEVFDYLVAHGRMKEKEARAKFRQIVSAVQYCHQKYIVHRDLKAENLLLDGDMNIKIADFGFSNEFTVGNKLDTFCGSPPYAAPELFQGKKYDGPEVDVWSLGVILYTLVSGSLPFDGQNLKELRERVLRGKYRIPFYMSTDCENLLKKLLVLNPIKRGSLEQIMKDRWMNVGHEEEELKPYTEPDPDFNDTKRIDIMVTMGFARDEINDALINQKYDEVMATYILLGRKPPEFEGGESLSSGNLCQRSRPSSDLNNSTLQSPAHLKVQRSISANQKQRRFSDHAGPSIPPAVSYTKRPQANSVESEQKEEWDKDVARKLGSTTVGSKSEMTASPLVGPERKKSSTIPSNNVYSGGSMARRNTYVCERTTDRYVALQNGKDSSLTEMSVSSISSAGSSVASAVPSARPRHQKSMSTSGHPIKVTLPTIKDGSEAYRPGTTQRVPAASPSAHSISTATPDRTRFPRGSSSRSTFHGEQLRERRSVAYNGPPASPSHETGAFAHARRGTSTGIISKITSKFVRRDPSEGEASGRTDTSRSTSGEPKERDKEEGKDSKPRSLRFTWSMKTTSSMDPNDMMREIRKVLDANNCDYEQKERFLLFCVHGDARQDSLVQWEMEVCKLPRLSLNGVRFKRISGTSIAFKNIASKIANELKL
Text: as §1

| SMILES | Residual activity ([1]; MAP3K7/MAP3K7IP1, 1.0E-06 M) | Residual activity ([1]; MAP3K7/MAP3K7IP1, 1.0E-07 M) | Residual activity ([2]; 1.0E-06 M) | Residual activity ([2]; 1.0E-07 M) | Residual activity ([3]; 1.0E-06 M) | Residual activity ([3]; 1.0E-07 M) | Residual activity ([4]; FGF-R4, 1.0E-06 M) | Residual activity ([4]; FGF-R4, 1.0E-07 M) | Residual activity, TGFB-R1 ([5]; assay conc. 1.0E-06 M) | Residual activity, TGFB-R1 ([5]; assay conc. 1.0E-07 M) | Residual activity ([6]; JNK1, 1.0E-06 M) | Residual activity ([6]; JNK1, 1.0E-07 M) | Residual activity ([7]; CDK7/CycH/MAT1, 1.0E-06 M) | Residual activity ([7]; CDK7/CycH/MAT1, 1.0E-07 M) | Residual activity, TYRO3 ([8]; assay conc. 1.0E-06 M) | Residual activity, TYRO3 ([8]; assay conc. 1.0E-07 M) | Residual activity, TRK-B ([9]; assay conc. 1.0E-06 M) | Residual activity, TRK-B ([9]; assay conc. 1.0E-07 M) | Residual activity, VRK2 ([10]; assay conc. 1.0E-06 M) | Residual activity, VRK2 ([10]; assay conc. 1.0E-07 M) | also measured |
| --- | --- | --- | --- | --- | --- | --- | --- | --- | --- | --- | --- | --- | --- | --- | --- | --- | --- | --- | --- | --- | --- |
| C#Cc1cc(Nc2ncnc3cc(I)ccc23)ccc1Cl [Compound 41] | 87 % of control | 98 % of control | 98 % of control | 114 % of control | 110 % of control | 113 % of control | 88 % of control | 96 % of control | 81 % of control | 86 % of control | 91 % of control | 90 % of control | 81 % of control | 93 % of control | 91 % of control | 100 % of control | 98 % of control | 107 % of control | 97 % of control | 95 % of control | Residual activity ([11]; MARK1, 1.0E-06 M): 85 % of control; Residual activity ([11]; MARK1, 1.0E-07 M): 94 % of control |
| C#Cc1cc(Nc2ncnc3cc(OC)c(OC)cc23)ccc1Cl [Compound 45] | 79 % of control | 81 % of control | 95 % of control | 107 % of control | 93 % of control | 115 % of control | 96 % of control | 100 % of control | 75 % of control | 84 % of control | 94 % of control | 113 % of control | 79 % of control | 74 % of control | 58 % of control | 93 % of control | 97 % of control | 98 % of control | 232 % of control | 87 % of control | Residual activity ([11]; MARK1, 1.0E-06 M): 93 % of control; Residual activity ([11]; MARK1, 1.0E-07 M): 93 % of control |
